Patent US20170152226A1, “FUNCTIONALISED AND SUBSTITUTED INDOLES AS ANTI-CANCER AGENTS” (Novogen Ltd., priority 2014, published 2017)
pIC50: −log10 of the molar value.

Columns and labels:
A2058 = assay: Anti-proliferative activity, MTS viability assay; assay type: cell-based; conditions: Homo sapiens, 72 hours exposure, read-out: IC50 Melanoma A2058
Protocol: (§1) The anti-proliferative activity of compound 3507 was further evaluated in cell lines representative of melanoma, prostate cancer, leukaemia and neuroblastoma. Cell viability after 72 hours exposure to increasing concentrations of compound 3507 was measured using an MTS viability assay. Cell viability was normalized to control (vehicle alone) and dose-response curves, and relative inhibitory concentration (IC50) values were determined using GraphPad Prism 6.

SK-N-Be(2) = assay: Anti-proliferative activity, MTS viability assay; assay type: cell-based; conditions: Homo sapiens, SKNBE2, 72 hours exposure, read-out: IC50 Neuroblastoma SK-N-Be(2)
Protocol: as §1

BPH-1 = assay: Anti-proliferative activity, MTS viability assay; assay type: cell-based; conditions: Homo sapiens, 72 hours exposure, read-out: IC50 Prostate BPH-1
Protocol: as §1

MM415 = assay: Anti-proliferative activity, MTS viability assay; assay type: cell-based; conditions: 72 hours exposure, read-out: IC50 Melanoma MM415
Protocol: as §1

THP-1 = assay: Anti-proliferative activity, MTS viability assay; assay type: cell-based; conditions: Homo sapiens, 72 hours exposure, read-out: IC50 Leukemia THP-1
Protocol: as §1

BL = assay: Anti-proliferative activity, MTS viability assay; assay type: cell-based; conditions: 72 hours exposure, read-out: IC50 Melanoma BL
Protocol: as §1

CHLA20 tumours = assay: CHLA20 neuroblastoma xenograft model; assay type: in vivo; conditions: 150 mg/kg IP daily, 18 days
Protocol: FIG. 4: Compound 3507/30% w/v Dexolve-7 was administered IP daily at 150 mg/kg for 18 days in a flank xenograft model of neuroblastoma (CHLA-20). Tumour volume was measured every 2-3 days.
The in vivo efficacy of compound 3507 was evaluated in the CHLA20 neuroblastoma xenograft model. CHLA20 tumours were established in athymic nude mice by injecting 1.0×10^7 tumour cells subcutaneously in the right flank. Dosing of animals commenced when tumour volume reached ˜200-400 mm^3. Animals (˜n=5+) were randomly divided into treatment and control groups. Compound 3507 was dosed daily by intraperotineal (IP) injection at 150 mg/kg in 30% w/v Captisol (a cyclodextrin-containing formulation).

IL-6 = assay: Inhibition of cytokine release from PBMCs (HTRF); assay type: cell-based; conditions: PBMC, human PBMCs, LPS stimulated
Protocol: (§2) The ability of compounds 3507, 3520, 3534 and 3538 to inhibit the release of cytokines TNF-α, IFN-γ, IL-6, IL-21, IL-17A and IL-23 was evaluated in vitro (Tables 4 and 5). Briefly, human peripheral blood mononuclear cells (PBMCs) were isolated from human peripheral blood by Histopaque density gradient centrifugation. The freshly isolated PBMCs were seeded at 50,000 cells/well in a 96-well half area plate. PBMCs were dosed with the test compounds (at 10 μM, 1 μM and 0.1 μM) and then incubated at 37° C. and 5% CO2 for 2 hours. To stimulate release of the cytokines IFN-γ, IL-21, IL-17A and IL-23, the PBMCs were treated with 50 ng/mL of phorbol 12-myristate 13-acetate (PMA) and 1 μg/mL of ionomycin and to stimulate the release of TNF-α and IL-6, PBMCs were treated with 100 ng/mL of lipopolysaccharide (LPS) from gram-negative bacteria. The PBMCs were then incubated at 37° C. and 5% CO2 for a further 6 hours and the cell supernatant was collected and a Homogenous Time Resolved Fluorescence (HTRF) assay was carried out following the manufacturer's instructions. Cytokine release from the PBMCs was captured using a Perkin Elmer ENVISION 2104 microplate reader set at 615 nm and 665 nm respectively.

IFN-γ = assay: Inhibition of cytokine release from PBMCs (HTRF); assay type: cell-based; conditions: PBMC, human PBMCs, PMA and ionomycin stimulated
Protocol: as §2

IL-23 = assay: Inhibition of cytokine release from PBMCs (HTRF); assay type: cell-based; conditions: PBMC, human PBMCs, PMA and ionomycin stimulated
Protocol: as §2

TNF-α = assay: Inhibition of cytokine release from PBMCs (HTRF); assay type: cell-based; conditions: PBMC, human PBMCs, LPS stimulated
Protocol: as §2

IL-21 = assay: Inhibition of cytokine release from PBMCs (HTRF); assay type: cell-based; conditions: PBMC, human PBMCs, PMA and ionomycin stimulated
Protocol: as §2

IL-17A = assay: Inhibition of cytokine release from PBMCs (HTRF); assay type: cell-based; conditions: PBMC, human PBMCs, PMA and ionomycin stimulated
Protocol: as §2

Q: How did the pIC50 (A2058) turn out when `Cc1c(C)n(CCCN2CCN(C)CC2)c2ccc(Oc3cccc(C(=O)N4CCN(CCc5ccc(F)cc5)CC4)c3)cc12` [Compound 3507, (3-((2,3-dimethyl-1-(3-(4-methylpiperazin-1-yl)propyl)-1H-indol-5-yl)oxy)phenyl)(4-(4-fluorophenethyl)piperazin-1-yl)methanone] was run?
A: 5.39

Q: What about the pIC50 (SK-N-Be(2)) of the same compound?
A: 5.26

Q: What about the pIC50 (BPH-1) of the same compound?
A: 6.14

Q: What about the pIC50 (MM415) of the same compound?
A: 5.33

Q: And the pIC50 (THP-1)?
A: 6.10

Q: And the pIC50 (BL)?
A: 5.23

Q: And the tolerability (CHLA20 tumours)?
A: well tolerated

Q: What about the inhibition at 0.1 µM (IL-6; 0.1 μM) of the same compound?
A: -9%

Q: And the inhibition at 1 µM (IL-6; 1 μM)?
A: 21%

Q: What about the inhibition at 10 µM (IL-6; 10 μM) of the same compound?
A: 68%

Q: And the inhibition at 0.1 µM (IFN-γ; 0.1 μM)?
A: 16%

Q: What about the inhibition at 1 µM (IFN-γ; 1 μM) of the same compound?
A: 42%

Q: And the inhibition at 10 µM (IFN-γ; 10 μM)?
A: 77%

Q: What about the inhibition at 0.1 µM (IL-23; 0.1 μM) of the same compound?
A: -7%

Q: And the inhibition at 1 µM (IL-23; 1 μM)?
A: 0%

Q: And the inhibition at 10 µM (IL-23; 10 μM)?
A: 20%

Q: And the inhibition at 0.1 µM (TNF-α; 0.1 μM)?
A: 52%

Q: And the inhibition at 1 µM (TNF-α; 1 μM)?
A: 68%

Q: What about the inhibition at 10 µM (TNF-α; 10 μM) of the same compound?
A: 90%

Q: What about the inhibition at 0.1 µM (IL-21; 0.1 μM) of the same compound?
A: -6%

Q: What about the inhibition at 1 µM (IL-21; 1 μM) of the same compound?
A: 5%

Q: And the inhibition at 10 µM (IL-21; 10 μM)?
A: 19%

Q: What about the inhibition at 0.1 µM (IL-17A; 0.1 μM) of the same compound?
A: 2%

Q: And the inhibition at 1 µM (IL-17A; 1 μM)?
A: 4%

Q: And the inhibition at 10 µM (IL-17A; 10 μM)?
A: 13%
